# Source: US12059399B2, “Methods for alleviating kidney disease and fibrosis of organ” (Getwing Biotechnology Medical Co., Ltd, priority 2021, dated 2024)
# Columns and labels:
# [1] = system: mice subjected to UUO surgery; experiment: Biochemical analysis of blood and urine samples of mice 7 days after unilateral ureter obstruction (UUO) surgery; format: in vivo, Male C57BL/6J mice
# Protocol: Male C57BL/6J mice (having a weight of about 25 g) purchased from the National Laboratory Animal Center (Taipei, Taiwan) were kept in an animal room under the following laboratory conditions: a temperature of about 24° C. and a 12-hour light/12-hour dark cycle. Diets and water were provided ad libitum for all of the experimental animals.
# (§1) The UUO surgery was performed in accordance with the Guidelines for Care and Use of Laboratory Animals. Specifically, during the UUO surgery, the respective mouse was anesthetized through intraperitoneal injection of pentobarbital (Manufacturer: Merck KGaA, Darmstadt, Germany; Catalogue no.: P3761) at a dose of about 60 mg per kg of body weight. The skin tissue and the subcutaneous muscle layer at the left side of the abdominal midline were incised, so that the left kidney was exposed and the left ureter was identified and dissociated. The left ureter was dissected out with scissors and ligated with silk surgical sutures (size: 4-0) at an upstream location approximately 1 cm from the renal hilum and at a downstream location approximately 1 cm from the renal hilum. After confirmation that no bleeding and no urine leakage occurred, the incised subcutaneous muscle layer and skin tissue were stitched.
# (§2) The male C57BL/6J mice described in section 2 of the “General Experimental Materials” were randomly divided into 5 groups, namely, a sham-operated group (SOG), a pathological control groups (PCG), and three experimental groups (i.e., experimental group 1 (EG1), experimental group 2 (EG2), and experimental group 3 (EG3)) (n=3 per group). After being raised in the animal room for one week, the mice in the PCG and the EG1 to EG3 were subjected to the UUO surgery as described in section 1 of the “General Experimental Procedures”. The mice in the SOG were subjected to a similar surgical procedure, except that the ureter of the mice in the SOG was not obstructed, i.e., the left ureter was not dissected out and ligated. After surgery, during the entire experimental process which lasted 7 days, all the mice were placed in iron cages.
# (§3) The mice of the EG1 to EG3 were respectively administered, via oral gavage, with the ferrous amino acid chelate described in section 1 of the “General Experimental Materials” at a dose of 5 mg/kg, 125 mg/kg and 250 mg/kg of body weight once daily (in the morning) for 7 days. At the end of Day 7, a blood sample and a urine sample, each in a volume of 0.2 mL, were obtained from each mouse in the EG1 to EG3. The mice of the SOG and the mice of the PCG received no treatment (i.e., 0 mg/kg of ferrous amino acid chelate), and at the end of Day 7, a blood sample and a urine sample, each in a volume of 0.2 mL, were obtained from each mouse.
# The blood sample of the respective mouse was subjected to measurements of alanine transaminase (ALT), aspartate transaminase (AST), blood urea nitrogen (BUN) and creatinine levels for evaluation of kidney health. The urine sample of the respective mouse was subjected to quantification of urea nitrogen and creatinine levels for evaluation of kidney health. For each of the aforesaid parameters, the differences between each group were analyzed according to the procedures as described in the section 2 of the “General Experimental Procedures”.
# [2] = system: left obstructed kidney of mice subjected to UUO surgery; experiment: Histological analysis of renal tissues from the left obstructed kidney after UUO surgery (H&E, Masson's Trichrome, α-SMA and vimentin staining); format: in vivo, Male C57BL/6J mice
# Protocol: as §1, §2, §3
# The renal tissues were extracted from the left obstructed kidney of a selected mouse in each group. Fixation was conducted using 10% formalin, and dehydration was conducted using a series of graded alcohols (lower to higher concentrations) and xylene, followed by embedding in paraffin. A tissue section of […] was obtained and placed on a slide, followed by heating in an oven at […] overnight for melting the paraffin. Xylene was used to remove the melted paraffin, and rehydration was conducted with graded alcohols (higher to lower concentrations). Endogenous peroxidase was removed using 1% H2O2, followed by washing with a phosphate-buffered saline (PBS) buffer, so as to increase the permeability. After incubating the tissue section with fetal bovine serum (FBS) to prevent binding of some non-specific antigens, water was removed by suction.
# For staining of α-smooth muscle actin (SMA), a primary antibody against α-smooth muscle actin (SMA)(α-SMA) (Manufacturer: Abcam PLC; Catalogue no.: ab5694) with a dilution ratio of 1:400 was added to the tissue section at room temperature, and the reaction was allowed to proceed for 2 hours at room temperature. Thereafter, washing was conducted twice with PBS to remove unbound primary antibodies. A Polymer-HRP secondary antibody (Manufacturer: Golden Bridge International, Inc., USA) was added. One hour later after the reaction, washing was conducted twice with PBS. […]
# [3] = system: fibrous proteins (α-SMA, collagen I fibers, and vimentin) in kidney tissues; experiment: Protein expression analysis (Western blot) of renal tissues from the left obstructed kidney after UUO surgery; format: in vivo, Male C57BL/6J mice; settings: 7 days, vs PCG
# Protocol: as §1, §2, §3
# The renal tissues were extracted from the left obstructed kidney of a selected mouse in each group, and then lysed with NETN lysis buffer (20 mM Tris, 150 mM NaCl, 1 mM EDTA, and 0.5% NP-40) on ice. The resultant cell lysates were centrifuged, and the supernatants were collected to serve as total protein samples.
# Protein samples in equal amounts (i.e., 20 μg) as determined by Bradford assay were resolved in 8% or 10% sodium dodecyl sulfate-polyacrylamide (SDS-PAGE) gels, and then subjected to immunoblot analysis. To be specific, the separated proteins were transferred to Immobilon®-P polyvinylidene difluoride (PVDF) membranes (Manufacturer: Merck Millipore, NJ, USA). The blotted PVDF membranes thus obtained were blocked with Tris-buffered saline (TBS) and 0.1% (vol/vol) polysorbate 20 (also known as Tween 20) containing 5% non-fat dry milk for 1 hour at room temperature, followed by washing with TBST 3 times, each time for […], and then probing with the indicated primary antibodies overnight. The probed membranes were washed with a TBST buffer (a mixture of TBS and polysorbate 20) 3 times, each time for 5 minutes, and were then incubated with secondary antibodies, such as a horseradish peroxidase (HRP)-conjugated anti-mouse antibody or an HRP-conjugated anti-rabbit antibody for 60 minutes at room temperature. HRP was detected using ECL detection reagents (Merck Millipore, Darmstadt, Germany), and band intensity was determined by ImageQuant™ LAS-4000 luminescence image analyzer (GE Healthcare).
# Anti-glyceraldehyde 3-phosphate dehydrogenase (GAPDH) was used as a loading control.
# HK-2 cells [4] = experiment: Cytotoxicity analysis (MTT) in HK-2 cells; format: cell-based, Human; settings: EG1 to EG6: 50, 100, 250, 500, 750 and 1000 μg/mL; 24 hours; vs control group
# Protocol: (§4) Human kidney proximal tubular epithelial cell line HK-2 (from normal adult human renal cortex) used in the following experiments was obtained from, the Bioresource Collection and Research Center (BCRC) of the Food industry Research and Development Institute (FIRDI) (No. 331, Shih-Pin Rd., Hsinchu City 300, Taiwan).
# (§5) The HK-2 cells were incubated in 10-cm Petri dishes, each of which contained Dulbecco's modified Eagle's medium/Ham's Nutrient Mixture F-12 (DMEM/F12) (Manufacturer: Thermo Fisher Scientific, WA, USA; Catalogue no.: 12500062) supplemented with HyClone™ 1% (v/v) penicillin-steptomycin (Manufacturer: Cytiva; Catalogue no.: SC30010). […]
# First, the HK-2 cells described in section 3 of the General Experimental Materials were seeded at a concentration of 2×10^4 cells per well into wells of 6-well culture plates each containing DMEM/F-12 supplemented with 1% (v/v) penicillin-steptomycin, and then were divided into 7 groups, namely, a control group (CG), and six experimental groups (i.e., experimental groups 1 to 6 (EG1 to EG6)), followed by cultivation in an incubator with culture conditions set at 37° C. and 5% CO2 for 24 hours. […] Subsequently, the medium in each group was collected and subjected to light absorbance measurement at a wavelength of 570 nm (OD570) using a spectrophotometer. […]
# HK-2 cells [5] = experiment: Migration of HK-2 cells into the cell-free wound area, induced by TGF-β1 (EMT); format: cell-based, Human; settings: 100 μg/mL with 50 ng/mL TGF-β1; 24 hours; vs TGF-β1 alone (comparative group 1)
# Protocol: as §4
# as §5, with “SC30010). Subsequently, cultivation was conducted in an incubator with culture conditions set at 37° C. and 5% CO2. Medium change was performed every 2 days.” for “SC30010).”
# First, the HK-2 cells described in section 3 of the General Experimental Materials were seeded at a concentration of 4×10^4 cells per well into wells of 6-well culture plates each containing DMEM supplemented with 1% (v/v) penicillin-steptomycin, and then were divided into 4 groups, namely, a control group, a comparative group 1, a comparative group 2, and an experimental group, followed by cultivation until reaching 90% of confluence. […] Cell migration was assessed at the 0 hour and 24th hour using an inverted optical microscope.
# [6] = EG1 to EG3: 5, 125 and 250 mg/kg oral gavage once daily for 7 days, between SOG, PCG and EG1 to EG3
# [7] = 125 and 250 mg/kg (EG2, EG3) compared with 5 mg/kg (EG1)
# [8] = EG1 to EG3: 5, 125 and 250 mg/kg oral, 7 days, vs PCG
# [9] = EG1 and EG2: 5 and 125 mg/kg oral
substance,measurement,setting,value
ferrous glycinate chelate [ferrous amino acid chelate],blood urea nitrogen level,"[1]; EG1 to EG3: 5, 125 and 250 mg/kg oral gavage once daily for 7 days, UUO mice, vs PCG",significantly reduced compared to that in the PCG
same,urine urea nitrogen level,"[1]; EG1 to EG3: 5, 125 and 250 mg/kg oral gavage once daily for 7 days, among PCG, EG1, EG2 and EG3",no significant difference
same,ALT level in the blood sample,[1]; [6],no significant difference
same,AST level in the blood sample,[1]; [6],no significant difference
same,creatinine level in the blood sample,[1]; [6],no significant difference
same,urine creatinine level,"[1]; EG2 and EG3: 125 and 250 mg/kg oral gavage once daily for 7 days, UUO mice, vs PCG",significantly reduced compared to that in the PCG
same,degree of reduction of interstitial deposition of collagen fibers and muscle fibers,[2]; [7],greater in EG2 and EG3 compared with those in EG1
same,degree of reduction of tubular dilation,[2]; [7],greater in EG2 and EG3 compared with those in EG1
same,amount of actin fibers (α-SMA staining),[2]; [8],significantly reduced compared with those in the PCG
same,interstitial deposition of collagen fibers and muscle fibers (Masson's Trichrome staining),[2]; [8],significantly reduced compared with those in the PCG
same,number of cells undergoing fibrosis (vimentin staining),[2]; [8],significantly reduced compared with those in the PCG
same,tubular dilation (H & E staining),[2]; [8],significantly reduced compared with those in the PCG
same,expression of collagen I (Western blot),[3]; [9],no significant difference
same,expression of α-SMA (Western blot),[3]; [9],no significant difference
same,expression level of vimentin (Western blot),[3]; EG2 and EG3: 125 and 250 mg/kg oral,significant reduction in expression level
same,expression of collagen I (Western blot),[3]; EG3: 250 mg/kg oral,significantly reduced
same,expression of α-SMA (Western blot),[3]; EG3: 250 mg/kg oral,significantly reduced
same,expression level of vimentin (Western blot),"[3]; from EG1 to EG3: 5, 125, 250 mg/kg oral",gradually reduced from EG1 to EG3
same,"viability of the HK-2 cells (cell viability rate, MTT)",HK-2 cells [4],not significantly affected
same,migration of HK-2 cells into the cell-free wound area,HK-2 cells [5],decreased capability to migrate into the cell-free wound area
